Laboratory results taken from ChEMBL document CHEMBL5257099, “Design, synthesis and bioactivity evaluations of 8-substituted-quinoline-2-carboxamide derivatives as novel histone deacetylase (HDAC) inhibitors” (Bioorg Med Chem, 2023).

Experiments:
Jurkat = assay: Antiproliferative activity against human Jurkat cells assessed as inhibition of cell growth incubated for 48 hrs by CCK-8 assay; format: functional, cell-based
Histone deacetylase = assay: Inhibition of HDAC in human HeLa nuclear extract using Boc-Lys(Ac)-AMC or Boc-Lys(Tfa)-AMC as substrate preincubated for 5 mins followed by substrate addition and measured after 30 mins by fluorescence assay; format: subcellular, Nucleus
cells = format: functional, cell-based; conditions: Homo sapiens, KM3, 48 h
Description: Antiproliferative activity against human KM3 cells assessed as inhibition of cell growth incubated for 48 hrs by CCK-8 assay

in vitro = conditions: human, HUVEC cells
Description: Cytotoxicity against HUVEC cells assessed as inhibition of cell growth incubated for 48 hrs by CCK-8 assay

Histone deacetylase 1 = Histone deacetylase 1 (Homo sapiens, UniProt Q13547); assay: Inhibition of HDAC1 (unknown origin) using Boc-Lys(Ac)-AMC or Boc-Lys(Tfa)-AMC as substrate preincubated for 5 mins followed by substrate addition and measured after 2 hrs by fluorescence assay
[1] = molecular target: T1, Protein deacetylase HDAC6 (Homo sapiens, UniProt Q9UBN7); assay: Inhibition of HDAC6 (unknown origin) using Boc-Lys(Ac)-AMC or Boc-Lys(Tfa)-AMC as substrate preincubated for 5 mins followed by substrate addition and measured after 2 hrs by fluorescence assay
T1 sequence (Q9UBN7 whole entry): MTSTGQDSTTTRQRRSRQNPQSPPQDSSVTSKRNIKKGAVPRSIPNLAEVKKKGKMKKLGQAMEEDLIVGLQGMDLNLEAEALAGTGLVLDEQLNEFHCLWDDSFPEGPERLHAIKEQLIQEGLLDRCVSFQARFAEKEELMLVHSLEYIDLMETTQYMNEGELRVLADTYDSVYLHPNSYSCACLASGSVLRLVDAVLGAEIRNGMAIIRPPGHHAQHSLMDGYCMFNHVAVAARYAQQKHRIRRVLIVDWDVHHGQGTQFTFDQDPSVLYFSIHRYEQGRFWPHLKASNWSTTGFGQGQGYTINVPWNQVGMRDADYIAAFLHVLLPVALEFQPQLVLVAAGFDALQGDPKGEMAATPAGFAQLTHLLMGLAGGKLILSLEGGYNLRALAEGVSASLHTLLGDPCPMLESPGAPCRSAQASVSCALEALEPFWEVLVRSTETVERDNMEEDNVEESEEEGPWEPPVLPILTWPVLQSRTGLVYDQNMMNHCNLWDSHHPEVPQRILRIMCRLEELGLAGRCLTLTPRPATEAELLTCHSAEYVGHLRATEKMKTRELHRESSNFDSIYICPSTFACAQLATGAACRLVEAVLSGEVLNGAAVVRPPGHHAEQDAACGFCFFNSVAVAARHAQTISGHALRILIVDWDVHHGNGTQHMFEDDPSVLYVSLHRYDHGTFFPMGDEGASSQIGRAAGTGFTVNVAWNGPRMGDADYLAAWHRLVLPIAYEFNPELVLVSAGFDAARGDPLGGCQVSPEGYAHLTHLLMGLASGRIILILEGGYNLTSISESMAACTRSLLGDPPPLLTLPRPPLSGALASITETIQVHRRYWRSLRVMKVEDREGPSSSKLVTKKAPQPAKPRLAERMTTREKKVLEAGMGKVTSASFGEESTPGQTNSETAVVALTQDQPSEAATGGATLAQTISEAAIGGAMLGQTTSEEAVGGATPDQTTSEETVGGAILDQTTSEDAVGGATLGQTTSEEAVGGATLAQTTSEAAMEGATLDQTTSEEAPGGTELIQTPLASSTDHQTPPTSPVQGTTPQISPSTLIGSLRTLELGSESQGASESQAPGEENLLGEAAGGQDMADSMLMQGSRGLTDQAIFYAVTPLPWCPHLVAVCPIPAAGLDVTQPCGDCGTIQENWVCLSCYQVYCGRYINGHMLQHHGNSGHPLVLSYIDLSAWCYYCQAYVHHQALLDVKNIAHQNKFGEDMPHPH

SK-N-BE(2) = assay: cells; format: functional, cell-based; conditions: Homo sapiens, SKNBE2, 48 h
Description: Antiproliferative activity against human SK-N-BE(2) cells assessed as inhibition of cell growth incubated for 48 hrs by CCK-8 assay

Histone deacetylase 2 = Histone deacetylase 2 (Homo sapiens, UniProt Q92769); assay: Inhibition of HDAC2 (unknown origin) using Boc-Lys(Ac)-AMC or Boc-Lys(Tfa)-AMC as substrate preincubated for 5 mins followed by substrate addition and measured after 1 hr by fluorescence assay
Histone deacetylase 8 = molecular target: T2, Histone deacetylase 8 (Homo sapiens, UniProt Q9BY41); assay: Inhibition of HDAC8 (unknown origin) using Boc-Lys(Ac)-AMC or Boc-Lys(Tfa)-AMC as substrate preincubated for 5 mins followed by substrate addition and measured after 1 hr by fluorescence assay
T2 sequence (Q9BY41 whole entry): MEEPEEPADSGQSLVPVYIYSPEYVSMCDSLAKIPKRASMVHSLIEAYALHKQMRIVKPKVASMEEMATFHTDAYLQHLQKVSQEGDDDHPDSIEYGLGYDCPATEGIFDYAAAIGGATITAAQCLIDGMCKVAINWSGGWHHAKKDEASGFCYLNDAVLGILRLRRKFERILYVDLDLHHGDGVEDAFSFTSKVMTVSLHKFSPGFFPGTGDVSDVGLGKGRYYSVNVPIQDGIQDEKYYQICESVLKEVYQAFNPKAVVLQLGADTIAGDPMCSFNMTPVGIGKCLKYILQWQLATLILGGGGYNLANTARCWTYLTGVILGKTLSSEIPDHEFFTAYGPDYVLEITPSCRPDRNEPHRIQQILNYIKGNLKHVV

PC-3 = assay: cells; format: functional, cell-based; conditions: Homo sapiens, PC-3, 48 h
Description: Antiproliferative activity against human PC-3 cells assessed as inhibition of cell growth incubated for 48 hrs by CCK-8 assay

[2] = Metabolic stability in liver microsomes (unknown origin) at 2 mg/ml incubated for 120 mins under shaking condition in presence of NADPH by HPLC method; format: ADME, Microsome; conditions: 2 h

Sequence of Histone deacetylase 2 (Q92769 whole entry): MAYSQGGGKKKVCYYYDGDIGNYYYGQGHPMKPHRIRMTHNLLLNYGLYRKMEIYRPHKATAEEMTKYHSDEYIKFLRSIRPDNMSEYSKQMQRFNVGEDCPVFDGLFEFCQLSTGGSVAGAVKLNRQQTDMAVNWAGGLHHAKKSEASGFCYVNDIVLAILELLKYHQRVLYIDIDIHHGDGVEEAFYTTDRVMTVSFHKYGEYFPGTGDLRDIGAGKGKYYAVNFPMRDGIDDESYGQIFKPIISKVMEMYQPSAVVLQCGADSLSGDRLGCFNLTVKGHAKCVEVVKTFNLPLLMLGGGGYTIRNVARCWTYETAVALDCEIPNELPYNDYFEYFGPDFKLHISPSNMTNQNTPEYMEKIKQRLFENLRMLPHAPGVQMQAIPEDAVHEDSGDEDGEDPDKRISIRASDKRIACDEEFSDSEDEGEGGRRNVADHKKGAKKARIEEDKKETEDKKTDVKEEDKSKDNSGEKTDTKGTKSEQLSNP
Sequence of Histone deacetylase 1 (Q13547 whole entry): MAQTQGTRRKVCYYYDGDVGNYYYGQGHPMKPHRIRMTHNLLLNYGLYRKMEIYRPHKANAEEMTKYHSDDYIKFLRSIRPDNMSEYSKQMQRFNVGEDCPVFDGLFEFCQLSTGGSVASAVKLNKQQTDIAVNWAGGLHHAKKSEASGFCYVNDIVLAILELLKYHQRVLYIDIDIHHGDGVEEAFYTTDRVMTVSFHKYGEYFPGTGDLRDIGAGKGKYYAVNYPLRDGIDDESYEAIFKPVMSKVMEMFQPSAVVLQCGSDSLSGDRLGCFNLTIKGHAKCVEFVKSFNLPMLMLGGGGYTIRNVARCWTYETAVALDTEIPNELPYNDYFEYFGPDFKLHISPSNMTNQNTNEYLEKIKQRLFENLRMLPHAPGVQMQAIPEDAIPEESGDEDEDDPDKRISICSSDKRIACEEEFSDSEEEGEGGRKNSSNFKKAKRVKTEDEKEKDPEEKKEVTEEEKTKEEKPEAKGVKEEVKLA

IC50 (Jurkat) [nM] | IC50 (Histone deacetylase) [nM] | IC50 (cells) [nM] | IC50 at 48 h (in vitro) [nM] | IC50 (Histone deacetylase 1) [nM] | IC50 [1] [nM] | IC50 (SK-N-BE(2)) [nM] | IC50 (Histone deacetylase 2) [nM] | IC50 (Histone deacetylase 8) [nM] | IC50 (PC-3) [nM] | Stability [2] | SMILES
– | 187 | – | – | – | – | – | – | – | – | – | CC(C)(C)c1ccc(COc2cccc3ccc(C(=O)NCCCCCC(=O)NO)nc23)cc1
– | 127 | – | – | – | – | – | – | – | – | – | COc1ccc(COc2cccc3ccc(C(=O)NCCCCCC(=O)NO)nc23)cc1
– | 168 | – | – | – | – | – | – | – | – | – | O=C(CCCCCNC(=O)c1ccc2cccc(OCc3ccccc3)c2n1)NO
– | 168 | – | – | – | – | – | – | – | – | – | O=C(CCCCCNC(=O)c1ccc2cccc(OCc3ccc(Br)cc3)c2n1)NO
– | 62 | – | – | – | – | – | – | – | – | – | O=C(NO)c1ccc(CNC(=O)c2ccc3cccc(OCc4ccccc4)c3n2)cc1

Continued, molecule first:

SMILES | IC50 (Jurkat) [nM] | IC50 (Histone deacetylase) [nM] | IC50 (cells) [nM] | IC50 at 48 h (in vitro) [nM] | IC50 (Histone deacetylase 1) [nM] | IC50 [1] [nM] | IC50 (SK-N-BE(2)) [nM] | IC50 (Histone deacetylase 2) [nM] | IC50 (Histone deacetylase 8) [nM] | IC50 (PC-3) [nM] | Stability [2]
Cc1ccc(COc2cccc3ccc(C(=O)NCc4ccc(C(=O)NO)cc4)nc23)cc1 | 4430 | 46 | 1670 | > 50000 | 132 | 101 | 3570 | 43 | > 10000 | 4090 | –
COc1cccc2ccc(C(=O)NCc3ccc(C(=O)NO)cc3)nc12 | 2900 | 50 | 500 | > 50000 | 98 | 166 | 1210 | 26 | > 10000 | 2790 | Stable
O=C(NO)c1ccc(CNC(=O)c2ccc3cccc(OCc4ccc(Br)cc4)c3n2)cc1 | – | 54 | – | – | – | – | – | – | – | – | –
COc1ccc(COc2cccc3ccc(C(=O)NCc4ccc(C(=O)NO)cc4)nc23)cc1 | 4850 | 41 | 1460 | > 50000 | 130 | 61 | 4260 | 72 | > 10000 | 5900 | –
O=C(NO)c1ccc(CNC(=O)c2ccc3cccc(OCc4ccc(F)cc4)c3n2)cc1 | 4260 | 33 | 2830 | > 50000 | 70 | 38 | 3770 | 18 | > 10000 | 5660 | –
O=C(CCCCCCC(=O)Nc1ccccc1)NO [VORINOSTAT] | 3620 | – | – | – | – | – | – | – | – | – | –
